Laboratory results reported in patent US8822477B2, “Use of osmolytes obtained from extremophilic bacteria for producing medicine for the external treatment of neurodermatitis” (Bitop AG, priority 2003, dated 2014).

Tested on: neurodermatitis
Assay: topical treatment of neurodermatitis compared with placebo treatment
Format: in vivo
Details: for healing of affected skin changes: in comparison to a placebo treatment; for effectiveness in the treatment of neurodermatitis: topic application

SMILES	healing of affected skin changes	effectiveness in the treatment of neurodermatitis
CC1=NCC[C@@H](C(=O)O)N1 [ectoine]	unexpectedly accelerated healing of affected skin changes	surprisingly high effectiveness
CC1=NC[C@H](O)[C@@H](C(=O)O)N1 [hydroxyectoine]	unexpectedly accelerated healing of affected skin changes	surprisingly high effectiveness
